Patent US9618524B2, “Method, composition, isolation and identification of a plaque particle and related biomarker” (Plaxgen Inc., priority 2012, dated 2017)

What was measured:
Experiment in all cases: Mass spectroscopy proteomics, semi-quantitative binding affinity of serum proteins (plaqueproteome, Table 2)
Conditions in all cases: higher number = stronger affinity
[1] = molecular target: T1, Abeta-42 plaque particles (Homo sapiens, UniProt P05067)
T1 construct: Abeta 1-42
How it was run: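 AD patient serum or plasma (50% in PBS) was incubated with Abeta-42 aggregates (30 μg) for 1 h at 37 °C, then stained with Thioflavin S for 30 min. Labeled particles were FACS-sorted, trypsin/Lys-C digested overnight and analyzed by MS/MS. Sequest searched human UniProt; Scaffold/Protein Prophet validated the identifications.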

[2] = system: High Density cholesterol (Chl Large) plaque particles; design: species or system human
How it was run: (§1)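 Proteins bound to flow-sorted cholesterol plaque particles (large/high-density or small/low-density gates) were identified by LC-MS/MS after trypsin digestion. Particles were formed from 50% atherosclerotic serum or plasma with 30 μg cholesterol aggregates, 1 h, 37 °C. Sequest human database search; Scaffold validation.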

[3] = system: Low density cholesterol (Chl small) plaque particles; design: species or system human
How it was run: as §1

[4] = molecular target: T2, alpha-synuclein plaque particles (Homo sapiens, UniProt P37840)
T2 construct: 140 amino acids polypeptide
How it was run: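 AD-subject plasma or serum (800 μL of 50%) mixed with 30 μg preformed alpha-synuclein aggregates for 1 h at 37 °C; Thioflavin S-positive particles isolated by flow sorting. After reduction, acrylamide alkylation and overnight tryptic digestion, serum proteins identified by MS/MS with Sequest and Scaffold.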

[5] = system: Tau plaque particles; design: species or system human
How it was run: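 Synthetic Tau-74 and Tau-275 peptides (1 mg/mL PBS, 37° C, 2 h) aggregated; 30 μg aggregates incubated with 50% serum/plasma 1 h at 37° C, stained with Thioflavin S, and plaque particles sorted by flow cytometry. Bound proteins trypsin-digested and identified by MS/MS against human UniProt.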

| Substance | Semi-quantitative analysis of proteins binding to different plaque particles: Abeta-42 [1] | Semi-quantitative analysis of proteins binding to different plaque particles: Chl Large [2] | Semi-quantitative analysis of proteins binding to different plaque particles: Chl small [3] | Semi-quantitative analysis of proteins binding to different plaque particles: Synuclein [4] | Semi-quantitative analysis of proteins binding to different plaque particles: Tau [5] |
| --- | --- | --- | --- | --- | --- |
| Hemopexin | 11 | 22 | 16 | 18 | 16 |
| Complement C1s subcomponent | 0 | 3 | 1 | 1 | 2 |
| Apolipoprotein C-I (TPDVSSALDKLKEFGNTLEDKARELISRIKQSELSAKMREWFSETFQKVKEKLKIDS) | 2 | 1 | 1 | 0 | 1 |
| Gelsolin | 2 | 8 | 9 | 6 | 9 |
| Apolipoprotein A-I | 19 | 21 | 21 | 18 | 14 |
| Alpha-1-acid glycoprotein 1 | 12 | 9 | 8 | 7 | 11 |
| Cluster of Alpha-2-macroglobulin | 32 | 43 | 43 | 44 | 45 |
| Complement C4-A | 28 | 44 | 36 | 37 | 50 |
| Ig gamma-4 chain C region | 7 | 7 | 11 | 8 | 11 |
| Ig kappa chain V-I region DE | 5 | 5 | 1 | 3 | 2 |
| Plasminogen | 7 | 11 | 9 | 7 | 13 |
| Ig alpha-1 chain C region | 9 | 10 | 8 | 11 | 12 |
| POTE ankyrin domain family member E | 18 | 0 | 0 | 18 | 0 |
| Hornerin | 2 | 0 | 0 | 0 | 1 |
| Ig lambda chain V-IV region Hil | 0 | 0 | 1 | 0 | 1 |
| Apolipoprotein A-II | 5 | 8 | 6 | 7 | 10 |
| Cluster of Ig heavy chain V-III region TEI | 7 | 5 | 6 | 4 | 5 |
| Plasma protease C1 inhibitor | 4 | 7 | 7 | 9 | 3 |
| Ig kappa chain V-III region VG | 0 | 1 | 0 | 1 | 0 |
| Apolipoprotein B-100 | 62 | 47 | 51 | 42 | 65 |
| Cluster of Complement C3 | 63 | 73 | 67 | 71 | 85 |
| Immunoglobulin J chain | 0 | 1 | 1 | 2 | 1 |
